The experiment in a line: Antagonist activity at human CCR5 expressed in HOS cells assessed as inhibition of cell fusion with HIV gp120 expressing HEK293 cells by LTR luciferase assay.

Structures can show the parent of a compound that is named as a salt.

A word on the IC50: it is the concentration that gives 50% inhibition. `CCCCN1C(=O)C(CC(C)C)NC(=O)C12CCN(Cc1ccc(Oc3ccccc3)cc1)CC2` (stereo not drawn) [rac-1-Butyl-3-isobutyl-9-(4-phenoxybenzyl)-1,4,9-triazaspiro[5.5]undecane-2,5-dione hydrochloride]: the 50% inhibitory concentration (IC50) came out at 851 nM.

Regarding `CCCCN1C(=O)[C@@H]([C@H](O)C(C)C)NC(=O)C12CCN(Cc1ccc(Oc3ccccc3)cc1)CC2` [(R)-1-butyl-3-((R)-1-hydroxy-2-methyl-propyl)-9-(4-phenoxy-benzyl)-1,4,9-triaza-spiro[5.5]undecane-2,5-dione hydrochloride], the concentration for half-maximal inhibition (IC50) was determined as 229 nM.

Values taken from BindingDB's records for doi:10.1016/j.bmcl.2010.12.109 (Ono Pharmaceutical, 2011).
